Key:
[1] = system: C. trachomatis-infected HEp2 cells; assay: Indirect immunofluorescence of immune sera on infected HEp2 cells; format: cell-based, human; conditions: sera 1:40 dilution, FITC anti-mouse IgG
Description: Micrographs of HEp2 cells infected with C. trachomatis are immunostained (by indirect immunofluorescence) with sera (1:40 dilution) from mice immunized with the designated peptides (A-E) or soluble. mAb2 (F). FITC anti-mouse IgG was the detecting antibody. Arrows point to distinct differences in targets of the immune sera. Antibodies in panels A-C recognized EB and RB and possibly some matrix material in the inclusion. Antibodies in D-E also recognized targets in the inclusion matrix and inclusion membrane, similar to immune sera raised against the older vaccine candidate, the entire mAb2 (F). 40× original magnification. Samples are counterstained with Evans blue.
HEp2 cells were infected with C. trachomatis were subjected to cytocentrifugation to deposit them onto microscope slides. After fixation (MeOH) they were stained with sera (1:40 dilution) from mice immunized with the indicated peptides or with soluble mAb2. The binding of the antibodies to the cells was detected using a fluorescent (FITC-labeled) secondary Ab, an anti-mouse IgG. Results appear in FIGS. 9A-F.

chlamydia = assay: Gross anatomical observation of genital tract inflammation after challenge; format: in vivo, mouse; conditions: female mice primed and boosted twice SC, necropsy ~28 days post-challenge, vs adjuvant-only control
Description: FIG. 15A-15C is a set of three photographs showing the gross morphology of tissues of the female reproductive tract of mice immunized and then challenged 28 days earlier with Pep4 or Pep7. Mice had been primed and boosted twice SC, as above, and were challenged with chlamydia 2 weeks later, rechallenged and sacrificed 4 weeks after re-challenge. Inflamed genital tracts outlined in dashed lines.
Genital tracts were exposed at necropsy ˜28 days post-challenge to score inflammatory changes (and then removed for histological analysis). […] Representative examples for recipients of Peptides 4 and 7 are shown in the center and right panels, respectively. Yellow arrows point to uterine horns (which are further demarcated with dashed lines). It is evident that the peptide immunogens reduced the gross pathology of the genital tract even weeks after challenge. This has been reproduced in a second experiment in which control mice received an irrelevant peptide instead of Peptides 4 or 7. Based on what is known in the art from other contexts, the histopathological results are expected to be consistent with these gross anatomical observations.

C trachomatis = assay: DFA staining of vaginal smears after challenge of peptide-immunized mice; format: in vivo, mouse; conditions: mice immunized three times at 100 μg doses; days 7 and 14 post-challenge
Description: Mice are challenged with a human biovar of C trachomatis (K or E serovars for urogenital infections; C or B serovars for ocular infection).
Groups of 4-8 mice are “masked” as to pretreatment before challenge with live elementary bodies (EB). At weekly intervals through at least 4 wks, vaginal (or conjunctival) swabs are collected for isolation culture and direct fluorescence antibody staining for EB.
Using the murine models described above, the present inventors immunized mice with one of the four peptides (Pep4, 7, 8 or 10) administered three times at 100 μg doses. Results of direct fluorescent antibody (DFA) staining are summarized for days 7 and 14 post-challenge in FIGS. 10-11.

AFPQFRSATLLL [Pep4]
structures recognized by immune sera in infected cells [1]: recognized EB and metabolically active, non-infectious reticulate bodies (RB) | gross inflammation / pathology of the genital tract (chlamydia): not nearly as inflamed | DFA scores (C trachomatis): reduced DFA scores | bacterial shedding measured by DFA staining (C trachomatis): reduced bacterial shedding

From patent publication US8637040B2, “Genus-wide chlamydial peptide vaccine antigens” (priority 2008, dated 2014)
